The text below walks through data of article PMC9822133, “Design, Synthesis and Antiproliferative Evaluation of Bis-Indole Derivatives with a Phenyl Linker: Focus on Autophagy” (Molecules, 2022).

Where only a bound is given, the exact number is not on record here.

The test system of one test is MCF10A. Kind of test: MTT screening assay, MCF10A non-cancer cells. It counts as cell-based, human. The source says: (§1) The ability of newly synthesized indole phytoalexins to suppress cell proliferation was screened in vitro on eight cancer cell lines including human colorectal carcinoma (Caco-2 and HCT116), human cervical cancer (HeLa), human breast adenocarcinoma (MCF-7, MDA-MB-231), human alveolar adenocarcinoma (A549) and human leukemic T cell lymphoma (Jurkat), and two non-cancer cell lines (MCF-10A, Cos-7).
(§2) The cell lines used for this study were Caco-2 (human colorectal adenocarcinoma cell line, American Type Culture Collection, Manassas, VA, USA (ATCC)), HCT116 (human colorectal carcinoma cells European Collection of Authenticated Cell Cultures, Salisbury, UK (ECACC)), HeLa (human cervical tumor cells, ECACC), MCF-7 (human breast tumor cells, ECACC), MDA-MB-231 (human breast tumor cells, ATCC), A549 (human lung carcinoma cells, ATCC), BLM (human melanoma lung metastases, a gift from prof. K. Smetana, Institute of Anatomy, Charles University in Prague), Jurkat (human leukemia cell line, ECACC), Cos-7 (immortalized monkey kidney fibroblasts, ATCC) and MCF-10A (human mammary epithelial cells, ATCC). Caco-2, MCF-7, BLM, Cos-7 and A549 cells were cultured in Dulbecco’s Modified Eagle’s Medium (DMEM) with high glucose and sodium pyruvate (GE Healthcare, Piscataway, NJ, USA); HCT116 lines, HeLa, MDA-MB-231 and Jurkat were cultured in RPMI-1640 medium; and MCF10A cells were cultured in high glucose DMEM/F12 (Dulbecco’s Modified Eagle’s Medium F12). The media were enriched with 10% fetal bovine serum (FBS) and a 1% solution of a mixture of antibiotics and antimycotics 1× HyClone™ (GE Healthcare, Chicago, IL, USA). DMEM/F12 medium was supplemented with epidermal growth factor (EGF) (20 ng/mL final), hydrocortisone (0.5 μg/mL final) and insulin (10 μg/mL final) (Sigma-Aldrich Chemie, Steinheim, Germany). The cells were placed in an incubator at 37 °C with humidified air containing 5% CO2.
The MTT assay is a colorimetric method used to quantify the metabolic activity of cells. MTT (3-(4,5-di-methylthiazol-2-yl)2,5-diphenyltetrazolium bromide) (Sigma-Aldrich Chemie, Steinheim, Germany) is reduced by oxidoreductases in the cytosol of cells to light-absorbing formazan, the presence of which can be measured spectrophotometrically and determines the half-maximal inhibitory concentration (IC50). A549 cells were seeded in […] culture plates at a density of 5 × 10^3 per well. After 24 h of cultivation, the tested substance 49 was added in concentrations of 10, 50 and 100 µM.
We also incubated the cells with chloroquine at concentrations of 5–20 µM, which was added 1 h before the addition of the test substance, and cisplatin at concentrations of 3–10 µM. Cisplatin was added 24 h after the addition of 49. After 72 h of incubation, 10 µL of MTT (5 mg/mL) was added to each well. After 4 h, formazan crystals formed in the wells, which were dissolved in 100 uL of 10% SDS (sodium dodecyl sulfate). After 24 h, the absorbance was measured at a wavelength of 540 nm using an automated Cytation™ 3 Cell Imaging Multi-Mode Reader (Biotek, Winooski, VT, USA). These experiments were performed in three independent replicates.
On the technique in general: Formazan colour is commonly taken as a measure of viable cells.

The next test deals with Caco-2. Kind of test: MTT screening assay, Caco-2. It counts as cell-based. The conditions noted are these: Homo sapiens, 72 h incubation.
From the text: as §1, §2
(§3) The MTT assay is a colorimetric method used to quantify the metabolic activity of cells. MTT (3-(4,5-di-methylthiazol-2-yl)2,5-diphenyltetrazolium bromide) (Sigma-Aldrich Chemie, Steinheim, Germany) is reduced by oxidoreductases in the cytosol of cells to light-absorbing formazan, the presence of which can be measured spectrophotometrically and determines the half-maximal inhibitory concentration (IC50). A549 cells were seeded in […] culture plates at a density of 5 × 10^3 per well. […]
(§4) We also incubated the cells with chloroquine at concentrations of 5–20 µM, which was added 1 h before the addition of the test substance, and cisplatin at concentrations of 3–10 µM. […] After 24 h, the absorbance was measured at a wavelength of 540 nm using an automated Cytation™ 3 Cell Imaging Multi-Mode Reader (Biotek, Winooski, VT, USA). […]

Another test relates to A549 cells. The test is described as follows: Annexin V/PI staining. It counts as cell-based, human. The procedure:
Phosphatidylserine (PS), normally localized in the inner leaflet of the cell membrane, is translocated on the outer surface during induction of apoptosis. Annexin V/PI double staining was performed to analyze the externalization of PS on the outer plasmatic membrane surface together with cell population diversification (An^−/PI^−—living cells; An^+/PI^- early apoptotic cells; An^+/PI^+—late apoptotic/necrotic cells, and An^−/PI^+—dead cells). […] The A549 lung human alveolar adenocarcinoma cells were seeded at a density of 2 × 10^5/dish. After 24 h incubation, the cells were treated with indole phytoalexin 49 at 20 µM concentration alone or after 1 h pre-treatment with chloroquine (20 µM), and the control group with DMSO (v/v 0.02%). The whole population of treated cells (adherent and floating) was harvested at three different times (24, 48 and 72 h), washed with PBS and stained with Annexin V-Alexa Fluor® 647 antibody (Thermo Scientific, Rockford, IL, USA) in binding buffer for 20 min in the dark at RT. After the wash step, samples were stained with 1 μL of propidium iodide (final concentration 25 μg/mL) for 5 min and analyzed using a BD FACSCalibur^TM Flow Cytometer (Becton Dickinson, San Jose, CA, USA). Three independent analyses were performed.

The subject of test [1] is superoxide dismutase (SOD). The test is described as follows: SOD activity in treated A549 cells. The class given is cell-based, human. Particulars: A549, 20 µM. From the text: Glutathione is an important intracellular molecule involved in carcinogen detoxification. On the other hand, its elevated state in cancer cells is often associated with resistance to chemotherapy. […] Because high levels of GSH are associated with cancer cell resistance, the GHS-depleting effect of compound 49 could be interesting due to new cancer chemosensitizer development. In the case of GST and GR, we hypothesize that an increase in the activity of both enzymes may be a compensatory mechanism induced by GSH depletion.
Both floating and adherent A549 cells were harvested at 24, 48, and 72 h after treatment with compound 49 (20 µM). SOD determination kit, Glutathione Peroxidase Cellular Activity Assay kit, Glutathione Reductase Assay Kit and Glutathione-S-transferase (GST) Assay Kit (all Sigma Aldrich, Germany) were used for the detection of relevant enzyme activity. Reduced glutathione (GSH) content was measured by the method originally described by Floreani et al.. Assays were performed on an M 501 single beam UV/VIS spectrophotometer (Spectronic Camspec Ltd., Leeds, United Kingdom). All measured parameters were calculated per milligram or gram of protein determined using the bicinchoninic acid assay.

In another test the test system is Cos-7. The test is described as follows: MTT screening assay, Cos-7 non-cancer cells. The class given is cell-based, monkey. The conditions noted are these: Primates, 72 h incubation.
From the text: as §1, §2, §3, §4

The term IC50 denotes the midpoint of a concentration-inhibition curve. In the case of `CC(C)(C)OC(=O)n1cc(CNC(=O)Nc2ccc(NC(=O)NCc3cn(C(=O)OC(C)(C)C)c4ccccc34)cc2)c2ccccc21` [Compound 49, N,N′-(1,4-phenylene)bis{N′-[1-(tert-butoxycarbonyl)indol-3-yl]methyl (urea)}], the IC50 in the test on MCF10A (Homo sapiens, MCF-10A, 72 h incubation, MTT, non-cancer cells) is 55.1 ± 4.1 µM; with Caco-2, 8.6 ± 0.9 µM; in the test on Cos-7, greater than 100 µM. Also, the “Selectivity index—A549 cells vs. non-cancer cells (MCF10A)” value in the test on MCF10A (IC50 MCF10A / IC50 A549) was found to be 6.3. Moreover, in the test with A549 cells (A549, 20 µM, 24, 48 and 72 h, vs DMSO-treated control), the “total PS externalization (Annexin V/PI)” value was “did not induce”. The “number of cells in late apoptosis, combination with CQ” value in the test with A549 cells (A549, 49 20 µM + CQ 20 µM, all time points, vs DMSO, CQ or 49 alone) was “significantly increased”. For the same molecule, the figures for the SOD in test [1] (24 h), in test [1] (48 h) and in test [1] (72 h) were 0.408 ± 0.24 μkat/mg Prot, 0.526 ± 0.27 μkat/mg Prot and 0.523 ± 0.38 μkat/mg Prot, respectively.
